Assay results from patent US6544989B2, “Benzazoles: benzoxazole, benzthiazole and benzimidazole derivatives” (Syngenta Limited, priority 1998, dated 2003).

Tests used:
Uncinula necator = experiment: Fungicidal test, Uncinula necator (UNCINE) on vines, PRCO; format: in vivo; conditions: METHOD 2 (unbanded)
[1] = system: Phytophthora infestans lycopersici; format: in vivo; conditions: METHOD 2 (unbanded)
Venturia inaequalis = experiment: Fungicidal test, Venturia inaequalis (VENTIN) on apples, PRCO; format: in vivo; conditions: METHOD 2 (unbanded)
[2] = system: Erysiphe graminis f.sp. tritici; experiment: Fungicidal test, Erysiphe graminis f.sp. tritici (ERYSGT) on wheat, PRCO; format: in vivo; conditions: METHOD 2 (unbanded)
Septoria nodorum = experiment: Fungicidal test, Septoria nodorum (LEPTNO) on wheat, PRCO; format: in vivo; conditions: METHOD 2 (unbanded)
Puccinia recondita = experiment: Fungicidal test, Puccinia recondita (PUCCRT) on wheat, PRCO; format: in vivo; conditions: METHOD 2 (unbanded)
Meloidogyne incognita = experiment: Nematode test, J2 infective juveniles of Meloidogyne incognita, mortality; conditions: 12.5 ppm; J2 infective juveniles suspended in solution; mortality after three days
Procedure: The activities of individual compounds of formula (I) were determined using a variety of pests. With the exception of nematodes, the pests were treated with a liquid composition containing 500 parts per million (ppm) by weight of a compound unless otherwise stated. Each composition was made by dissolving the compound in an acetone and ethanol (50:50 by volume) mixture and diluting the solution with water containing 0.05% by volume of a wetting agent, SYNPERONIC NP8, until the liquid composition contained the required concentration of the compound.
The test procedure for nematodes involved dissolving the compound in an acetone and ethanol (50:50 by volume) mixture and diluting the solution with water to obtain a final concentration of the compound of 12.5 ppm. J2 infective juveniles of Meloidogyne incognita were suspended in the solution in a glass vial and mortality assessed after a period of three days.

Musca domestica = conditions: 500 ppm by weight; knockdown assessed 15 minutes after treatment

| SMILES | UNCINE 1 d Prot/Foir PRCO (Uncinula necator) | PHYTIN 1 d Prot/Foir PRCO [1] | VENTIN 1 d Prot/Foir PRCO (Venturia inaequalis) | ERYSGT 6 hr Prot/Foir PRCO [2] | ERYSGT 1 d Prot/Foir PRCO [2] | LEPTNO 1 d Prot/Foir PRCO (Septoria nodorum) | PUCCRT 1 d Prot/Foir PRCO (Puccinia recondita) | MELGIN = Meloidogyne incognita, grading of mortality (score) (Meloidogyne incognita) | MUSCDO AC = Musca domestica (knockdown), score (Musca domestica) |
| --- | --- | --- | --- | --- | --- | --- | --- | --- | --- |
| COc1ccccc1-c1nc2cc(CC(=O)Nc3snc(C)c3Cl)ccc2o1 [305(A3)] | 19 | 74 | −6 | 16 | 16 | −2 | 81 | 0 (0 indicates less than 40% mortality) | – |
| Cc1nc2ccc(CC(=O)Nc3snc(C)c3Cl)cc2o1 [2(A23)] | – | 100 | – | – | −3 | 53 | 77 | 0 (0 indicates less than 40% mortality) | 0 (0 indicates less than 40% mortality) |
| Cc1nsc(NC(=O)Cc2ccc3oc(-c4ccccc4Cl)nc3c2)c1Cl [253(A3)] | 100 | 98 | 34 | 94 | 94 | 8 | 99 | 0 (0 indicates less than 40% mortality) | – |
| Cc1nsc(NC(=O)Cc2ccc3oc(-c4ccncc4)nc3c2)c1Cl [339(A3)] | – | 0 | – | – | −7 | 0 | 31 | 0 (0 indicates less than 40% mortality) | 0 (0 indicates less than 40% mortality) |
| CCCN(C(=O)Cc1ccc2oc(C)nc2c1)c1snc(C)c1Cl [2(D3)] | – | 59 | – | – | – | – | 96 | 0 (0 indicates less than 40% mortality) | 0 (0 indicates less than 40% mortality) |
| Cc1nsc(NC(=O)Cc2ccc3oc(C=Cc4ccc([N+](=O)[O-])cc4)nc3c2)c1Cl [63(A3)] | 14 | 66 | 13 | – | 40 | 2 | 69 | – | – |
| CCCc1nc2cc(CC(=O)N(CC)c3snc(C)c3Cl)ccc2o1 [4(C3)] | – | 79 | – | – | – | – | 96 | 0 (0 indicates less than 40% mortality) | 0 (0 indicates less than 40% mortality) |
| Cc1nsc(NC(=O)Cc2ccc3oc(-c4cccs4)nc3c2)c1Cl [330(A3)] | 14 | 99 | 6 | – | 87 | 37 | 99 | 0 (0 indicates less than 40% mortality) | – |
| CCCc1nc2cc(CC(=O)N(COC)c3snc(C)c3Cl)ccc2o1 [4(K3)] | – | 98 | – | – | – | – | 100 | 0 (0 indicates less than 40% mortality) | 0 (0 indicates less than 40% mortality) |
| Cc1nsc(NC(=O)Cc2ccc3oc(C4CCCCC4)nc3c2)c1Cl [35(A3)] | – | 84 | – | – | 93 | −15 | 100 | 0 (0 indicates less than 40% mortality) | 0 (0 indicates less than 40% mortality) |
| CCCc1nc2cc(CC(=O)N(CCC)c3snc(C)c3Cl)ccc2o1 [4(D3)] | – | 96 | – | – | – | – | 90 | 0 (0 indicates less than 40% mortality) | 0 (0 indicates less than 40% mortality) |
| C#CCN(C(=O)Cc1ccc2oc(C)nc2c1)c1snc(C)c1Cl [2(F3)] | – | 100 | – | – | – | – | 90 | 0 (0 indicates less than 40% mortality) | 0 (0 indicates less than 40% mortality) |
| COCCOCN(C(=O)Cc1ccc2oc(CC(C)(C)C)nc2c1)c1snc(C)c1Cl [15(M3)] | – | 98 | – | – | – | – | 6 | 0 (0 indicates less than 40% mortality) | 0 (0 indicates less than 40% mortality) |
| CCCc1nc2ccc(CC(=O)Nc3snc(C)c3Cl)cc2o1 [4(A23)] | – | 100 | – | – | 59 | 63 | 100 | 0 (0 indicates less than 40% mortality) | 0 (0 indicates less than 40% mortality) |
